These results are taken from patent US20240376094A2, “SELECTIVE BCL-XL PROTAC COMPOUNDS AND METHODS OF USE” (Les Laboratoires Servier, priority 2021, published 2024).

For one experiment, the system named is MOLT-4 cells. Put plainly: MOLT-4 cell viability, CTG assay. The conditions noted are these: Homo sapiens, MOLT-4, 48 h. It counts as cell-based. The source says: The MTT colorimetric assay is based on the mitochondrial reduction of tetrazolium salt by living cells. The viable cell number is proportional to the production of formazan salts, which can be read spectrophotometrically at 540 nm. The CTG luminescent assay (CellTiter GLO, Promega) is based on a reagent which lyses cells and measures total adenosine triphosphate (ATP) content. The viable cell number is proportional to the production of ATP.
MOLT-4 cells were purchased from ATCC and cultivated in RPMI 1640 supplemented with 10% heat inactivated fetal bovine serum, penicillin (100 IU/mi), streptomycin (100 μg/ml) and L-glutamine (2 mM). Cells were cultured at 37° C. in a humidified atmosphere containing 5% […].
For CTG assay, cells were seeded in 384 microwell plates (40 μL per well) and exposed to the compounds for 48 h (11-point serial dilution with 5-fold factor, triplicates). At the end of incubation time, 40 μL of CTG solution were added per well. Wells were mixed thoroughly, and plates were incubated at room temperature for 10 minutes to stabilize luminescent signals prior to reading using a luminescence reader (PHERAStar FSX Reader, BMG Labtech).
IC50, were calculated using standard four-parametric curve fitting. IC50 is defined as the compound concentration at which the MTT or CTG signal is reduced to 50% of that measured for the control. Results shown in Table 14 represent the mean of at least 2 independent experiments.

The target of another experiment is T1, Bcl-xL (Homo sapiens, UniProt Q07817).
T1 construct: Measured levels of Bcl-xL protein of HCT116 cells treated with the tested compounds; host or cells: HCT116
Put plainly: HCT116 Bcl-xL degradation, capillary-based immunoassay (WES). It counts as cell-based. The conditions noted are these: for DC50: HCT116, 24 h, 9-point serial dilution. The procedure:
HCT116 cells were purchased from ATCC and cultivated in RPMI 1640 supplemented with 10% heat inactivated fetal bovine serum, penicillin (100 IU/mi), streptomycin (100 μg/ml) and L-glutamine (2 mM). Cells were cultured at 37° C. in a humidified atmosphere containing 5% CO2. Cells were seeded in 96 microwell plates, 24 h later cells were treated with compounds (2-point 10/100 nM and/or 9-point serial dilution to determine DC50; quadruplicates) during 24 h and harvested in lysis buffer containing 10 mM Hepes (pH 7.5), 150 mM KCl, 5 mM MgCl2, 1 mM EDTA, 0.4% TritonX100, protease and phosphatase inhibitors cocktails (Calbiochem).
Protein concentration in the supernatants was determined using the Pierce BCA protein assay kit (Thermo Fisher Scientific). Lysates (1.5 μg/μL) were analyzed using an automated capillary electrophoresis WES system with 2-40 kDa Wes Separation Module (25 capillary cartridges, Proteinsimple), in accordance with the manufacturer's protocols. Antibodies against the following proteins were used: Bcl-xL (#2764, Cell Signaling Technology, 1:50) and cofilin (#5175, Cell Signaling Technology, 1:1000). Signals were detected with an HRP-conjugated secondary anti-rabbit antibody (#042-206, Proteinsimple) and were quantified using Compass software (version 4.0, Proteinsimple).
Bcl-xL level was calculated by normalizing Bcl-xL values to cofilin and expressed as a percentage of the normalized value of the untreated cells. DC50 were calculated using standard four-parametric curve fitting. DC50 is defined as the compound concentration at which Bcl-xL is reduced to 50% of that measured for the control. Measured levels of Bcl-xL protein of HCT116 cells treated with the tested compounds at 2-point 10 nM/100 nM and/or 9-point for DC50 determination are shown in Table 15.

T1 sequence (Q07817 whole entry): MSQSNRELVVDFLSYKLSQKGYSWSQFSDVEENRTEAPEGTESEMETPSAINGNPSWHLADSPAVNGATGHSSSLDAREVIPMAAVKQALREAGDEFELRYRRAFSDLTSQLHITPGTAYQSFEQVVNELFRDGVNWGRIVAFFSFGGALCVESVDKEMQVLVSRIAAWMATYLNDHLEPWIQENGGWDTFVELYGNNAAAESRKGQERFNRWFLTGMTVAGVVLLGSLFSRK

For `Cc1c(Nc2nc3ccccc3s2)nnc2c1CCCN2c1ccc(-c2cnn(CC34CC5(C)CC(C)(C3)CC(OCCN(C)CCOCCOCCOCCOCCNc3cccc6c3C(=O)N(C3CCC(=O)NC3=O)C6=O)(C5)C4)c2C)c(C(=O)O)n1` (stereo not shown) [Example 132, 6-[3-(1,3-benzothiazol-2-ylamino)-4-methyl-6,7-dihydro-5H-pyrido[2,3-c]pyridazin-8-yl]-3-[1-[[3-[2-[2-[2-[2-[2-[2-[[2-(2,6-dioxo-3-piperidyl)-1,3-dioxo-isoindolin-4-yl]amino]ethoxy]ethoxy]ethoxy]ethoxy]ethyl-methyl-amino]ethoxy]-5,7-dimethyl-1-adamantyl]methyl]-5-methyl-pyrazol-4-yl]pyridine-2-carboxylic acid], the IC50 (as a rule, the concentration that inhibits the measured activity by half) in the experiment with MOLT-4 cells came out at 26.6 nM. Moreover, the remaining activity (commonly the signal under treatment as a percentage of the control signal) at 0.01 µM on Bcl-xL (HCT-116, HCT116, 10 nM, 24 h, % of untreated cells) was 108%. Besides, the remaining activity at 0.1 µM at Bcl-xL (HCT-116, HCT116, 100 nM, 24 h, % of untreated cells) is 103%.

On to `Cc1cc(N(CCCCN(C)C(=O)CCCCCCCCNc2cccc3c2C(=O)N(C2CCC(=O)NC2=O)C3=O)c2ccc(-c3cnn(CC45CC6(C)CC(C)(C4)CC(OCCN(C)C)(C6)C5)c3C)c(C(=O)O)n2)nnc1Nc1nc2ccccc2s1` (stereo not shown) [Example 91, 6-[[6-(1,3-benzothiazol-2-ylamino)-5-methyl-pyridazin-3-yl]-[4-[9-[[2-(2,6-dioxo-3-piperidyl)-1,3-dioxo-isoindolin-4-yl]amino]nonanoyl-methyl-amino]butyl]amino]-3-[1-[[3-[2-(dimethylamino)ethoxy]-5,7-dimethyl-1-adamantyl]methyl]-5-methyl-pyrazol-4-yl]pyridine-2-carboxylic acid], for which the midpoint of inhibition in the experiment on MOLT-4 cells, the IC50, lay at 12.7 nM. The DC50 – broadly, the concentration at which degradation of the target reaches its halfway point – on Bcl-xL is 0.407 nM.

In the case of `Cc1cc(N(CCCCN(C)C(=O)CCCCCCCCCCCNc2cccc3c2C(=O)N(C2CCC(=O)NC2=O)C3=O)c2ccc(-c3cnn(CC45CC6(C)CC(C)(C4)CC(OCCN(C)C)(C6)C5)c3C)c(C(=O)O)n2)nnc1Nc1nc2ccccc2s1` (stereo not shown) [Example 93, 6-[[6-(1,3-benzothiazol-2-ylamino)-5-methyl-pyridazin-3-yl]-[4-[12-[[2-(2,6-dioxo-3-piperidyl)-1,3-dioxo-isoindolin-4-yl]amino]dodecanoyl-methyl-amino]butyl]amino]-3-[1-[[3-[2-(dimethylamino)ethoxy]-5,7-dimethyl-1-adamantyl]methyl]-5-methyl-pyrazol-4-yl]pyridine-2-carboxylic acid], the IC50 in the experiment with MOLT-4 cells was 19.6 nM. Also, the DC50 at Bcl-xL is 0.951 nM.

In the experiment on MOLT-4 cells, `CN[C@@H](C)C(=O)N[C@H](C(=O)N1CCC[C@H]1c1nc(C(=O)c2cccc(OCCCCCCCCN(C)CCOC34CC5(C)CC(C)(CC(Cn6ncc(-c7ccc(N8CCCc9c8nnc(Nc8nc%10ccccc%10s8)c9C)nc7C(=O)O)c6C)(C5)C3)C4)c2)cs1)C1CCCCC1` [Example 97, 6-[3-(1,3-benzothiazol-2-ylamino)-4-methyl-6,7-dihydro-5H-pyrido[2,3-c]pyridazin-8-yl]-3-[1-[[3-[2-[8-[3-[2-[(2S)-1-[(2S)-2-cyclohexyl-2-[[(2S)-2-(methylamino)propanoyl]amino]acetyl]pyrrolidin-2-yl]thiazole-4-carbonyl]phenoxy]octyl-methyl-amino]ethoxy]-5,7-dimethyl-1-adamantyl]methyl]-5-methyl-pyrazol-4-yl]pyridine-2-carboxylic acid] returned an IC50 of 3.76 nM. The same molecule gave a DC50 at Bcl-xL of 0.356 nM.

Take `Cc1c(Nc2nc3ccccc3s2)nnc2c1CCCN2c1ccc(-c2cnn(CC34CC5(C)CC(C)(C3)CC(OCCN(C)CCCCCC(=O)N3CCC(c6ccc7c(c6)CN(C6CCC(=O)NC6=O)C7=O)CC3)(C5)C4)c2C)c(C(=O)O)n1` (stereo not shown) [Example 67, 6-[3-(1,3-benzothiazol-2-ylamino)-4-methyl-6,7-dihydro-5H-pyrido[2,3-c]pyridazin-8-yl]-3-[1-[[3-[2-[[6-[4-[2-(2,6-dioxo-3-piperidyl)-1-oxo-isoindolin-5-yl]-1-piperidyl]-6-oxo-hexyl]-methyl-amino]ethoxy]-5,7-dimethyl-1-adamantyl]methyl]-5-methyl-pyrazol-4-yl]pyridine-2-carboxylic acid]: the IC50 in the experiment with MOLT-4 cells amounted to 24.2 nM. For the same molecule, the DC50 at Bcl-xL was greater than 316 nM.

In the experiment on MOLT-4 cells, `Cc1ncsc1-c1ccc([C@H](C)NC(=O)[C@@H]2C[C@@H](O)CN2C(=O)[C@@H](NC(=O)CCOCCOCCN(C)CCOC23CC4(C)CC(C)(CC(Cn5ncc(-c6ccc(N7CCCc8c7nnc(Nc7nc9ccccc9s7)c8C)nc6C(=O)O)c5C)(C4)C2)C3)C(C)(C)C)cc1` [Example 173, 6-[3-(1,3-benzothiazol-2-ylamino)-4-methyl-6,7-dihydro-5H-pyrido[2,3-c]pyridazin-8-yl]-3-[1-[[3-[2-[2-[2-[3-[[(1S)-1-[(2S,4R)-4-hydroxy-2-[[(1S)-1-[4-(4-methylthiazol-5-yl)phenyl]ethyl]carbamoyl]pyrrolidine-1-carbonyl]-2,2-dimethyl-propyl]amino]-3-oxo-propoxy]ethoxy]ethyl-methyl-amino]ethoxy]-5,7-dimethyl-1-adamantyl]methyl]-5-methyl-pyrazol-4-yl]pyridine-2-carboxylic acid] showed an IC50 of 35.6 nM. Besides, the DC50 at Bcl-xL was greater than 316 nM.

In the case of `Cc1c(Nc2nc3ccccc3s2)nnc2c1CCCN2c1ccc(-c2cnn(CC34CC5(C)CC(C)(C3)CC(OCCN(C)CCCCCCCOc3ccc6c(c3)C(=O)N(C3CCC(=O)NC3=O)C6=O)(C5)C4)c2C)c(C(=O)O)n1` (stereo not shown) [Example 106, 6-[3-(1,3-benzothiazol-2-ylamino)-4-methyl-6,7-dihydro-5H-pyrido[2,3-c]pyridazin-8-yl]-3-[1-[[3-[2-[7-[2-(2,6-dioxo-3-piperidyl)-1,3-dioxo-isoindolin-5-yl]oxyheptyl-methyl-amino]ethoxy]-5,7-dimethyl-1-adamantyl]methyl]-5-methyl-pyrazol-4-yl]pyridine-2-carboxylic acid], in the experiment with MOLT-4 cells, the IC50 amounted to 2.63 nM. On Bcl-xL, this molecule returned a DC50 of 0.211 nM.

In the experiment on MOLT-4 cells, `Cc1ncsc1-c1ccc(CNC(=O)[C@@H]2C[C@@H](O)CN2C(=O)[C@@H](NC(=O)C2(F)CC2)C(C)(C)C)c(OCCCCCCCCCCCCCCCN(C)CCOC23CC4(C)CC(C)(CC(Cn5ncc(-c6ccc(N7CCCc8c7nnc(Nc7nc9ccccc9s7)c8C)nc6C(=O)O)c5C)(C4)C2)C3)c1` [Example 83, 6-[3-(1,3-benzothiazol-2-ylamino)-4-methyl-6,7-dihydro-5H-pyrido[2,3-c]pyridazin-8-yl]-3-[1-[[3-[2-[15-[2-[[[(2S,4R)-1-[(2S)-2-[(1-fluorocyclopropanecarbonyl)amino]-3,3-dimethyl-butanoyl]-4-hydroxy-pyrrolidine-2-carbonyl]amino]methyl]-5-(4-methylthiazol-5-yl)phenoxy]pentadecyl-methyl-amino]ethoxy]-5,7-dimethyl-1-adamantyl]methyl]-5-methyl-pyrazol-4-yl]pyridine-2-carboxylic acid] gave an IC50 of 4.72 nM. The DC50 on Bcl-xL worked out at 4.49 nM.

Take `CN[C@@H](C)C(=O)N[C@H](C(=O)N1CCC[C@H]1c1nc(C(=O)c2cccc(OCCCCCCCCCCCCN(C)CCOC34CC5(C)CC(C)(CC(Cn6ncc(-c7ccc(N8CCCc9c8nnc(Nc8nc%10ccccc%10s8)c9C)nc7C(=O)O)c6C)(C5)C3)C4)c2)cs1)C1CCCCC1` [Example 96, 6-[3-(1,3-benzothiazol-2-ylamino)-4-methyl-6,7-dihydro-5H-pyrido[2,3-c]pyridazin-8-yl]-3-[1-[[3-[2-[12-[3-[2-[(2S)-1-[(2S)-2-cyclohexyl-2-[[(2S)-2-(methylamino)propanoyl]amino]acetyl]pyrrolidin-2-yl]thiazole-4-carbonyl]phenoxy]dodecyl-methyl-amino]ethoxy]-5,7-dimethyl-1-adamantyl]methyl]-5-methyl-pyrazol-4-yl]pyridine-2-carboxylic acid]: the IC50 in the experiment with MOLT-4 cells turned out to be 4.36 nM. On Bcl-xL, this molecule yielded a DC50 greater than 316 nM.
